Data as given in patent publication US11180496B2 (Daewoong Pharmaceutical Co., Ltd., priority 2017, dated 2021).

Legend:
BTK = molecular target: T1, BTK (Homo sapiens, UniProt Q06187); assay: BTK inhibitory activity, ADP-Glo + BTK Kinase enzyme system kit (Promega); type: biochemical; details: BTK enzyme 1 ng/uL, ATP 10 uM, 15 min preincubation, luminescence, duplicate
T1 construct: purchased Promega
Outline: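 BTK activity measured by ADP-Glo luminescence: kinase reaction with substrate and 10 uM ATP (final) for 1 h at 30°C, then ADP-Glo reagent 40 min and detection 30 min at 30°C. Run in duplicate; IC50 calculated relative to no-compound and positive controls.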

ITK = molecular target: T2, ITK (Homo sapiens, UniProt Q08881); assay: ITK inhibitory activity, ADP-Glo + ITK Kinase enzyme system kit (Promega); type: biochemical; details: ITK enzyme 0.4 ng/uL, ATP 25 uM, 15 min preincubation, luminescence, duplicate
T2 construct: purchased Promega
T2 sequence (Q08881 1-620): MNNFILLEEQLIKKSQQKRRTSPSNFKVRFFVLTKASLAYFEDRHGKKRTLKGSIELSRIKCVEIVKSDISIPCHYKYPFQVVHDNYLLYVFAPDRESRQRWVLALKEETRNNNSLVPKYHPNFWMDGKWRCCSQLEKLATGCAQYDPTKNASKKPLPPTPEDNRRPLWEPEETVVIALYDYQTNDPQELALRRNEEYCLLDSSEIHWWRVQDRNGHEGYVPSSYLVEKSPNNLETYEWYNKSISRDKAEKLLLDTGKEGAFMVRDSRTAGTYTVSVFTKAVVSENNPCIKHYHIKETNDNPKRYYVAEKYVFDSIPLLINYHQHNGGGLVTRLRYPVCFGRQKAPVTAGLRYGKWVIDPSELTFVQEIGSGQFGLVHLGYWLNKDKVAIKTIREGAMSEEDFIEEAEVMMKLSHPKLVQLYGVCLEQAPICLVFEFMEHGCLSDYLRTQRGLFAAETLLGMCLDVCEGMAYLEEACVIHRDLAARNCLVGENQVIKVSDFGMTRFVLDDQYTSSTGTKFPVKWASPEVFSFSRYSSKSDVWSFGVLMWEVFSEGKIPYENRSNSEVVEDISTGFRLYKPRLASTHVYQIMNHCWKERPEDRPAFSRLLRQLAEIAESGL
Outline: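 ITK activity by ADP-Glo luminescence: substrate and ATP (final 25 uM) reacted 1 h at 30° C, then ADP-Glo reagent 40 min and detection reagent 30 min at 30° C. IC50 from duplicates, normalised to no-compound and enzyme-free controls.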

T1 sequence (Q06187 whole entry): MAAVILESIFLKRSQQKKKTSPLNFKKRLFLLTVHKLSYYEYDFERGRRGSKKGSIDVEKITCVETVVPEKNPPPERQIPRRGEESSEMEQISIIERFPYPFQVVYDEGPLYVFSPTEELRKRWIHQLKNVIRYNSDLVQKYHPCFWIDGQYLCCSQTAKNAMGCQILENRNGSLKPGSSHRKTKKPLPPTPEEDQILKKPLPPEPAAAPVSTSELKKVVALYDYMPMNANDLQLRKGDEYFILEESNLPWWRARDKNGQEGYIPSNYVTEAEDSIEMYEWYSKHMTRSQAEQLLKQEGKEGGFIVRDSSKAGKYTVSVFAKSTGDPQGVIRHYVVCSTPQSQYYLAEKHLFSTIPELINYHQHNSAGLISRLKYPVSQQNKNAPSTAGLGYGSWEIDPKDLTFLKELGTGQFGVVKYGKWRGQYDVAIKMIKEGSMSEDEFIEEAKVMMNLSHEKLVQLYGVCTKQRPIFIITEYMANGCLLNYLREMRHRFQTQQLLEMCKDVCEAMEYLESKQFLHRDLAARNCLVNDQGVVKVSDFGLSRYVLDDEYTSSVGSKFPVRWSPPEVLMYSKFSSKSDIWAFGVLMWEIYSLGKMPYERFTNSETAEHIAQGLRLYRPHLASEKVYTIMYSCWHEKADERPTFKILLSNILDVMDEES

Row | SMILES | IC50 (BTK) [nM] | IC50 (ITK) [nM]
1 | C=CC(=O)N1CCC[C@@H](n2nc(C(=O)OC(C)(C)C)c3c(N)nccc32)C1 [Example 72, (R)-tert-butyl 1-(1-acryloylpiperidin-3-yl)-4-amino-1H-pyrazolo[4,3-c]pyridine-3-carboxylate] | 88.9 | 68.2
2 | C=CC(=O)N1CCC[C@@H](n2nc(C(=O)Nc3nc4ccc(Br)cc4o3)c3c(N)nccc32)C1 [Example 73, (R)-1-(1-acryloylpiperidin-3-yl)-4-amino-N-(6-bromobenzo[d]oxazol-2-yl)-1H-pyrazolo[4,3-c]pyridine-3-carboxamide] | 32 | 141
3 | C=CC(=O)N1CCC[C@@H](n2nc(C(=O)Nc3nc4ccccc4o3)c3c(N)nccc32)C1 [Example 77, (R)-1-(1-acryloylpiperidin-3-yl)-4-amino-N-(benzo[d]oxazol-2-yl)-1H-pyrazolo[4,3-c]pyridine-3-carboxamide] | 5 | 13.1
4 | C=CC(=O)N1CCC[C@@H](n2nc(C(=O)Nc3ccccc3)c3c(N)ncc(Cl)c32)C1 [Example 78, (R)-1-(1-acryloylpiperidin-3-yl)-4-amino-7-chloro-N-phenyl-1H-pyrazolo[4,3-c]pyridine-3-carboxamide] | 22.1 | 27
5 | C=CC(=O)N1CCC[C@@H](n2nc(C(=O)Nc3ccc4c(c3)OCCO4)c3c(N)ncc(Cl)c32)C1 [Example 79, (R)-1-(1-acryloylpiperidin-3-yl)-4-amino-7-chloro-N-(2,3-di hydrobenzo[b][1,4]dioxin-6-yl)-1H-pyrazolo[4,3-c]pyridine-3-carboxamide] | 100 | 54.9

Stronger by IC50 (BTK), values ahead:

Row | IC50 (BTK) [nM] | IC50 (ITK) [nM] | SMILES
6 | 3.4 | 4.1 | C=CC(=O)N1CCC[C@@H](n2nc(C(=O)Nc3nc4cc(Cl)ccc4o3)c3c(N)nccc32)C1 [Example 71, (R)-1-(1-acryloylpiperidin-3-yl)-4-amino-N-(5-chlorobenzo[d]oxazol-2-yl)-1H-pyrazolo[4,3-c]pyridine-3-carboxamide]
7 | 3.3 | 6.4 | C=CC(=O)N1CCC[C@@H](n2nc(C(=O)Nc3nc4cc(Cl)ccc4o3)c3c(N)ncc(Cl)c32)C1 [Example 74, (R)-1-(1-acryloylpiperidin-3-yl)-4-amino-7-chloro-N-(5-chlorobenzo[d]oxazol-2-yl)-1H-pyrazolo[4,3-c]pyridine-3-carboxamide]
8 | 2.2 | 2.4 | C=CC(=O)N1CCC[C@@H](n2nc(C(=O)Nc3nc4ccccc4o3)c3c(N)ncc(Cl)c32)C1 [Example 75, (R)-1-(1-acryloylpiperidin-3-yl)-4-amino-N-(benzo[d]oxazol-2-yl)-7-chloro-1H-pyrazolo[4,3-c]pyridine-3-carboxamide]
9 | 2 | 2.9 | C=CC(=O)N1CCC[C@@H](n2nc(-c3ccc(C(=O)Nc4ccccn4)cc3Cl)c3c(N)ncc(C=C)c32)C1 [Example 69, (R)-4-(1-(1-acryloylpiperidin-3-yl)-4-amino-7-vinyl-1H-pyrazolo[4,3-c]pyridin-3-yl)-3-chloro-N-(pyridin-2-yl)benzamide]
10 | 2 | 5.2 | C=CC(=O)N1CCC[C@@H](n2nc(-c3ccc(C(=O)Nc4ccccn4)cc3Cl)c3c(N)ncc(-c4cn[nH]c4)c32)C1 [Example 70, (R)-4-(1-(1-acryloylpiperidin-3-yl)-4-amino-7-(1H-pyrazol-4-yl)-1H-pyrazolo[4,3-c]pyridin-3-yl)-3-chloro-N-(pyridin-2-yl)benzamide]
11 | 1.5 | 2.1 | C=CC(=O)N1CCC[C@@H](n2nc(C(=O)Nc3nc4cc(F)ccc4o3)c3c(N)ncc(Cl)c32)C1 [Example 76, (R)-1-(1-acryloylpiperidin-3-yl)-4-amino-7-chloro-N-(5-fluorobenzo[d]oxazol-2-yl)-1H-pyrazolo[4,3-c]pyridine-3-carboxamide]
12 | 0.9 | 1.7 | C=CC(=O)N1CCC[C@@H](n2nc(-c3ccc(C(=O)Nc4ccccn4)cc3Cl)c3c(N)ncc(CC)c32)C1 [Example 68, (R)-4-(1-(1-acryloylpiperidin-3-yl)-4-amino-7-ethyl-1H-pyrazolo[4,3-c]pyridin-3-yl)-3-chloro-N-(pyridin-2-yl)benzamide]
